Measurements from US20050014696A1, “Additive cytoprotective effects of two bioactive regions of pro-opiomelanocortin hormone” (priority 2001, published 2005).

Test system: 96% ethanol induced gastric lesions
Experiment: 96% ethanol induced gastric lesions cytoprotection model
Format: in vivo, male Wistar rats
Conditions: 8 animals, mean±standard deviation, saline control 255.5±78.1, p<0.05 compared to controls
Procedure: Bioactive peptide fragments SYSMEHFRWGKPV and YGGFM were tested individually and in combination, by means of the standard cytoprotection model of the 96% ethanol induced gastric lesions in male Wistar rats (6, 7). In the control group of 8 animals treated with physiological saline the area of gastric lesions was 255.5±78.1 mm^2 (mean±standard deviation, FIG. 1) (7). In the group of 8 animals treated with the combination of peptides SYSMEHFRWGKPV (1 mg/kg) and YGGFM (10 mg/kg) the area of gastric lesions was 0.3±0.7 mm^2 (p<0.05 compared to controls, FIG. 1) (7). In the group of 8 animals treated with peptide SYSMEHFRWGKPV (1 mg/kg) the area of gastric lesions was 5.9±8 mm^2 (p<0.05 compared to controls, FIG. 1) (7). In the group of 8 animals treated with peptide YGGFM (10 mg/kg) the area of gastric lesions was 139.4±36.1 mm^2 (p<0.05 compared to controls, FIG. 1) (7). The combination of peptides SYSMEHFRWGKPV and YGGFM that provided best cytoprotective effect is patented under the name KOMET.
FIG. 1 defines the cytoprotective effects of the bioactive peptide fragments SYSMEHFRWGKPV and YGGFM of the pro-opiomelanocortin molecule, and their combination KOMET, in the model of the ethanol induced gastric lesions in rats.
FIG. 1. […]

SYSMEHFRWGKPV
area of gastric lesions (1 mg/kg): 5.9±8 mm^2

YGGFM
area of gastric lesions (10 mg/kg): 139.4±36.1 mm^2
